# Experimental data taken from ChEMBL document CHEMBL1150114, “Isolation and structure of a 20,21-epoxybufenolide series from "Ch'an Su"” (J Nat Prod, 2002).
# System: KB
# Experiment: Cytotoxicity against human KB cells after 72 hrs by MTT assay
# Format: functional, cell-based
# Conditions: not given
row,SMILES,IC50 [µg/mL]
1,C[C@]12CC[C@H](OC=O)C[C@H]1CC[C@@H]1[C@@H]2CC[C@]2(C)[C@@H]([C@]34C=CC(=O)O[C@H]3O4)C[C@H]3O[C@]132,> 25
2,C[C@]12CC[C@H](OC=O)C[C@H]1CC[C@@H]1[C@@H]2CC[C@]2(C)[C@@H]([C@@]34C=CC(=O)O[C@@H]3O4)C[C@H]3O[C@]132,> 25
3,C[C@]12CC[C@H](O)C[C@H]1CC[C@@H]1[C@@H]2CC[C@]2(C)[C@@H]([C@@]34C=CC(=O)O[C@@H]3O4)C[C@H]3O[C@]132,10.9
4,C[C@]12CCC(=O)C[C@H]1CC[C@@H]1[C@@H]2CC[C@]2(C)[C@@H]([C@@]34C=CC(=O)O[C@@H]3O4)C[C@H]3O[C@]132,18.5
5,C[C@]12CC[C@H](O)C[C@H]1CC[C@@H]1[C@@H]2CC[C@]2(C)[C@@H]([C@]34C=CC(=O)O[C@H]3O4)C[C@H]3O[C@]132,8.09
6,C[C@]12CC[C@H](O)C[C@H]1CC[C@@H]1[C@@H]2CC[C@]2(C)[C@@H](c3ccc(=O)oc3)C[C@H]3O[C@]132 [BUFOGENIN],1.34

# System: MH60
# Experiment: Cytotoxicity against mouse MH60 cells after 72 hrs by MTT assay
# Format: functional, cell-based
# Conditions: MH60, 72 h
row,SMILES,IC50 [µg/mL]
1,C[C@]12CC[C@H](OC=O)C[C@H]1CC[C@@H]1[C@@H]2CC[C@]2(C)[C@@H]([C@]34C=CC(=O)O[C@H]3O4)C[C@H]3O[C@]132,> 25
2,C[C@]12CC[C@H](OC=O)C[C@H]1CC[C@@H]1[C@@H]2CC[C@]2(C)[C@@H]([C@@]34C=CC(=O)O[C@@H]3O4)C[C@H]3O[C@]132,> 25
3,C[C@]12CC[C@H](O)C[C@H]1CC[C@@H]1[C@@H]2CC[C@]2(C)[C@@H]([C@@]34C=CC(=O)O[C@@H]3O4)C[C@H]3O[C@]132,1.82
4,C[C@]12CCC(=O)C[C@H]1CC[C@@H]1[C@@H]2CC[C@]2(C)[C@@H]([C@@]34C=CC(=O)O[C@@H]3O4)C[C@H]3O[C@]132,8.54
5,C[C@]12CC[C@H](O)C[C@H]1CC[C@@H]1[C@@H]2CC[C@]2(C)[C@@H]([C@]34C=CC(=O)O[C@H]3O4)C[C@H]3O[C@]132,1.8
6,C[C@]12CC[C@H](O)C[C@H]1CC[C@@H]1[C@@H]2CC[C@]2(C)[C@@H](c3ccc(=O)oc3)C[C@H]3O[C@]132 [BUFOGENIN],10.5
